Measurements: ChEMBL document CHEMBL1154504, “Discovery and development of heat shock protein 90 inhibitors” (Bioorg Med Chem, 2009)
Values after ≈ are worked out from the molar mass of the structure shown.

Tests used:
[1] = Solubility in water; format: physicochemical
[2] = target: T1, Heat shock protein HSP 90-beta (Homo sapiens, UniProt P08238); experiment: Inhibition of Hsp90 in human SKBR3 cells assessed as Her2 degradation; format: cell-based, SK-BR-3
[3] = target: T1, Heat shock protein HSP 90-beta; experiment: Inhibition of Hsp90
HCT-116 [4] = experiment: cells; details: Homo sapiens
Description: Antiproliferative against human HCT116 cells

[5] = target: T1, Heat shock protein HSP 90-beta; experiment: Binding affinity to Hsp90 by fluorescence polarization assay
[6] = target: T1, Heat shock protein HSP 90-beta; experiment: Inhibition of Hsp90 in human MCF7 cells assessed as Her2 degradation; format: cell-based
MCF7 [7] = experiment: Cytotoxicity against human MCF7 cells; format: functional, cell-based
[8] = target: ATP-dependent molecular chaperone HSP82 (Saccharomyces cerevisiae S288c, UniProt P02829); experiment: Binding affinity to yeast Hsp90 ATPase activity
ATP-dependent molecular chaperone HSP82, sequence (P02829 whole entry): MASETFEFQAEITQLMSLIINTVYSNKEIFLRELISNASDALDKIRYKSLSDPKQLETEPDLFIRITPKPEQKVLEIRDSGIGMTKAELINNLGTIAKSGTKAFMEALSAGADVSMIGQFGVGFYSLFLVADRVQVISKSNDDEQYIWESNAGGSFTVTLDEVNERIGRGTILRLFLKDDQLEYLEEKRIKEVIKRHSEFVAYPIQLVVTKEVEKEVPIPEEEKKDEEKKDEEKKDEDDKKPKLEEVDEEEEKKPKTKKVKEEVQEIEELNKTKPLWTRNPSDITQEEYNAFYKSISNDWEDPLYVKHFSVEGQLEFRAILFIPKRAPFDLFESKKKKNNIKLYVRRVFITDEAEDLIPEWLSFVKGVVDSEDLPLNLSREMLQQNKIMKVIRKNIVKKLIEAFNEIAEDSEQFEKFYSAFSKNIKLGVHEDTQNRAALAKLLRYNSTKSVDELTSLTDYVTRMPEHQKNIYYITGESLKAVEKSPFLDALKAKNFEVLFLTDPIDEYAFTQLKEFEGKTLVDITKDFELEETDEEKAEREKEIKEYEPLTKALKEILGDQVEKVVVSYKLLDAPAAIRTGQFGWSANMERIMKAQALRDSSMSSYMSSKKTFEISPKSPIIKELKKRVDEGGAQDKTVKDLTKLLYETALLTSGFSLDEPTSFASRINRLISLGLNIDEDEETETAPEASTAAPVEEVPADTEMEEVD

[9] = target: Receptor tyrosine-protein kinase erbB-2 (Homo sapiens, UniProt P04626); experiment: Inhibition of Her2 in human SKBR3 cells; format: cell-based, SK-BR-3
Receptor tyrosine-protein kinase erbB-2, sequence (P04626 whole entry): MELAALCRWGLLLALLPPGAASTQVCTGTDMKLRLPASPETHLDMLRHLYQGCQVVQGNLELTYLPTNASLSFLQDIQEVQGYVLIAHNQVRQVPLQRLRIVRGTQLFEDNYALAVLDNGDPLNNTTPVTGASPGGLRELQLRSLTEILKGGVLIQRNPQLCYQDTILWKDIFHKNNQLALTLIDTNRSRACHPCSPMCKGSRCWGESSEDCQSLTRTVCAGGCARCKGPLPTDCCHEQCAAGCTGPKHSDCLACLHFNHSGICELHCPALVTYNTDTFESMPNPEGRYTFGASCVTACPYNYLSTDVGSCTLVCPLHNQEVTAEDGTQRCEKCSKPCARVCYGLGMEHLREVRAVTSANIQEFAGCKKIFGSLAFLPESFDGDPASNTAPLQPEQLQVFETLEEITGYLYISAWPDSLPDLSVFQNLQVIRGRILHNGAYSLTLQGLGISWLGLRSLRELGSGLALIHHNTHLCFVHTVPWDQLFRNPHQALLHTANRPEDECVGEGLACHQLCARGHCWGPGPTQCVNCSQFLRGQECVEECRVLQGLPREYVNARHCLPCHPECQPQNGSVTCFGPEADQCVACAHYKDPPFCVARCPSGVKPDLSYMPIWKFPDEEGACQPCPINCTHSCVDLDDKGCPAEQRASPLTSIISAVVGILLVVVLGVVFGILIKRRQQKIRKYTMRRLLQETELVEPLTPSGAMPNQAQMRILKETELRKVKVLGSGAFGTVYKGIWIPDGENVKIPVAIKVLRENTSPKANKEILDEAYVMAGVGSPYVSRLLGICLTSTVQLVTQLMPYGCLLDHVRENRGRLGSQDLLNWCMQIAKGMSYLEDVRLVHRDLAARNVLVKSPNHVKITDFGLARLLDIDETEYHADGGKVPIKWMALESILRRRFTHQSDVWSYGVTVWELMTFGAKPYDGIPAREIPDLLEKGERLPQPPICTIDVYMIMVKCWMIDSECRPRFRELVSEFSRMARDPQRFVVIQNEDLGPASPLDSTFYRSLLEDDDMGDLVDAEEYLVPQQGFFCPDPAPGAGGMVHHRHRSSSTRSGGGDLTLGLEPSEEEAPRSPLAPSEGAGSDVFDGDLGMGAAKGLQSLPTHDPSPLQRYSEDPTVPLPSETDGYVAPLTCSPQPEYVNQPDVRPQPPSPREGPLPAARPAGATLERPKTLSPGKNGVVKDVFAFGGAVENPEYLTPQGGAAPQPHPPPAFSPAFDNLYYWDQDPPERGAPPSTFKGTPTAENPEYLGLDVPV

NCI-N87 [10] = experiment: Antitumor activity in human NCI-N87 cells xenografted mouse assessed as inhibition of tumor growth at 200 mg/kg, po administered daily once for 5 days per week measured after 30 days; format: functional; details: read-out: GI
NCI-N87 [11] = experiment: Antitumor activity in human NCI-N87 cells xenografted mouse assessed as inhibition of tumor growth at 60 mg/kg, po administered daily once for 5 days per week measured after 5 weeks; format: functional; details: read-out: GI
NCI-N87 [12] = experiment: Antitumor activity in human NCI-N87 cells xenografted mouse assessed as inhibition of tumor growth at 125 mg/kg, po administered daily once for 5 days per week measured after 5 weeks; format: functional; details: read-out: GI
[13] = target: T1, Heat shock protein HSP 90-beta; experiment: Inhibition of Hsp90 assessed as Her2 degradation by cell based assay
HCT-116 [14] = experiment: Antitumor activity in human HCT116 cells xenografted mouse assessed as inhibition of tumor growth at 100 mg/kg, ip; format: functional; details: HCT-116, ip, route intraperitoneal, read-out: GI
cells = details: Homo sapiens, NCI60, read-out: GI
Description: Growth inhibition of human NCI60 cells at 13 nM

[15] = target: T1, Heat shock protein HSP 90-beta; experiment: Binding affinity to Hsp90 in human SKBR3 cells; format: cell-based, SK-BR-3
MCF7 [16] = experiment: Antitumor activity in human MCF7 cells xenografted mouse assessed as reduction of tumor burden at 200 mg/kg, ip administered alternative days; format: functional; design: scale not given: the % may be the effect or the level left; details: route intraperitoneal
HCT-116 [17] = experiment: Antitumor activity in human HCT116 cells xenografted mouse assessed as inhibition of tumor growth at 50 mg/kg, ip; format: functional; details: HCT-116, ip, route intraperitoneal, read-out: GI
[18] = Inhibition of Rous sarcoma virus v-Src

T1 sequence (P08238 whole entry): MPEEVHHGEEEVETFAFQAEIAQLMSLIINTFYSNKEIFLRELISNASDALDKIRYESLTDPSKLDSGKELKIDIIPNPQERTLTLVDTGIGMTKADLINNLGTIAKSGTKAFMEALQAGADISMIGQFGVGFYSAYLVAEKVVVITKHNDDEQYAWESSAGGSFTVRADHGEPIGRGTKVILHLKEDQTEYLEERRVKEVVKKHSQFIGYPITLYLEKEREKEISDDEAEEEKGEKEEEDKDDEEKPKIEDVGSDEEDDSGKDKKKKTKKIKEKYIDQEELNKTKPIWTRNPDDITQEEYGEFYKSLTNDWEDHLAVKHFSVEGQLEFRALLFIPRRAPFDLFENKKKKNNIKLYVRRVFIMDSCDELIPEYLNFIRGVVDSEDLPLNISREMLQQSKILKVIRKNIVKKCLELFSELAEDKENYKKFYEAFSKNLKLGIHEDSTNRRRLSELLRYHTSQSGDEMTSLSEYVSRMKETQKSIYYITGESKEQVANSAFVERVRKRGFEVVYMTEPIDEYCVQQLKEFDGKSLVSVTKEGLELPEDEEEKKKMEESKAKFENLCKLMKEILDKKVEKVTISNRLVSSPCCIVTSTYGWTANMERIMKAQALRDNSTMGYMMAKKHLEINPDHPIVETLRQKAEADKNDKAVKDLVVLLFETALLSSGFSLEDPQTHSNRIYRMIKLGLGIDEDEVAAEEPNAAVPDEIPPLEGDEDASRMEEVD

C=CCNc1c(O)cc2c(O)c1C[C@@H](C)C[C@H](OC)[C@H](O)[C@@H](C)/C=C(\C)[C@H](OC(N)=O)[C@@H](OC)/C=C\C=C(/C)C(=O)N2.Cl [RETASPIMYCIN HYDROCHLORIDE]
solubility [1]: > 250000 µg/mL

C#CCCCn1c(Sc2cc3c(cc2Br)OCO3)nc2c(N)ncnc21
IC50 [2]: 300 nM
EC50 [3]: 30 nM

CCNC(=O)c1noc(-c2cc(C(C)C)c(O)cc2O)c1-c1ccc(CN(CC)CC)cc1
GI50 (HCT-116 [4]): 6 nM

Cc1cc(C#Cc2ccccc2/C=N/N2CCOC2=O)nc(N)n1
Ki [5]: 4000 nM

Nc1ncnc2c1nc(Sc1nc3cccc(Cl)c3s1)n2CCNC1CC1
IC50 [6]: 110 nM

CCCCn1c(Sc2nc3cccc(Cl)c3s2)nc2c(N)ncnc21
IC50 [6]: 180 nM

C[C@@H]1C[C@H]2O[C@@H]2/C=C\C=C\C(=O)Cc2c(Cl)c(O)cc(O)c2C(=O)O1 [RADICICOL]
IC50 (MCF7 [7]): 23 nM

Oc1cc(O)c(-c2noc3ccc(NCCN4CCOCC4)cc23)cc1Cl
IC50 [5]: 30 nM

Cc1[nH]nc(-c2cc(Cl)c(O)cc2O)c1-c1ccc2c(c1)OCCO2
GI50 (HCT-116 [4]): 4000 nM
IC50 [8]: < 1000 nM

COc1ccc(I)c(Sc2nc3c(N)ncnc3n2CCCNC(C)(C)C)c1
solubility [1]: > 10000 µg/mL

Cc1nc(-c2c(-c3ccc(O)cc3O)noc2C(F)(F)F)cs1
IC50 [3]: 9000 nM

O=S(=O)(Nc1ccc(O)c(-c2c(O)ccc3ccccc23)c1)c1cc(Cl)ccc1Cl
GI50 (HCT-116 [4]): 29000 nM

C[C@@H]1C[C@H]2C[C@@H]2/C=C\C=C\C(=O)Cc2c(Cl)c(O)cc(O)c2C(=O)O1 [CYCLOPROPARADICICOL]
IC50 (MCF7 [7]): 43 nM
ED50 [3]: 160 nM

CS(=O)(=O)c1ccc(CN2CCN(c3cn[nH]c3-c3cc(Cl)c(O)cc3O)CC2)cc1
GI50 (HCT-116 [4]): 3100 nM
IC50 [5]: 740 nM

C=CCNC1=C2C[C@@H](C)C[C@H](OC)[C@H](O)[C@@H](C)/C=C(\C)[C@H](OC(N)=O)[C@@H](OC)/C=C\C=C(/C)C(=O)NC(=CC1=O)C2=O [TANESPIMYCIN]
IC50 [9]: 31 nM
solubility [1]: 50 µg/mL (≈ 0.0854 mM)

C[C@H]1CCCC(=O)CCCCCc2cc(O)cc(O)c2C(=O)O1 [ZEARALANONE]
IC50 [3]: 90 nM

COc1ccc(I)c(Sc2nc3c(N)ncnc3n2CCNCC(C)(C)C)c1
solubility [1]: > 10000 µg/mL
inhibition in vivo at 200 mg/kg (NCI-N87 [10]): 70%

Oc1cc(O)c(-c2n[nH]cc2N2CCN(Cc3ccccc3)CC2)cc1Cl
GI50 (HCT-116 [4]): 6500 nM

CCc1cc(-c2[nH]nc(C)c2-c2ccc3c(c2)OCCO3)c(O)cc1O
GI50 (HCT-116 [4]): 4100 nM

CC(C)NCCCn1c(Cc2cc3c(cc2I)OCO3)nc2c(N)nc(F)nc21
IC50 [2]: 90 nM
EC50 [5]: 22 nM

COc1c(C)ncc(Cn2cnc3c(Cl)nc(N)nc32)c1C
inhibition in vivo at 60 mg/kg (NCI-N87 [11]): 83%
inhibition in vivo at 125 mg/kg (NCI-N87 [12]): 87%
IC50 [13]: 20 nM

CCNC(=O)c1noc(-c2cc(Cl)c(O)cc2O)c1-c1ccc(OC)cc1
inhibition in vivo at 100 mg/kg (HCT-116 [14]): 30%

COC1=C2C[C@@H](C)C[C@H](OC)[C@H](O)[C@@H](C)/C=C(\C)[C@H](OC(N)=O)[C@@H](OC)/C=C\C=C(/C)C(=O)NC(=CC1=O)C2=O [GELDANAMYCIN]
inhibition of growth at 0.013 µM (cells): 50%

CO[C@H]1C[C@H](C)Cc2cc(O)cc(c2)NC(=O)/C=C/CC[C@H](OC)[C@@H](OC(N)=O)/C(C)=C/[C@H](C)[C@H]1O
Kd [15]: 16 nM

C#CCCCn1c(Cc2cc(OC)c(OC)c(OC)c2Cl)nc2c(N)nc(F)nc21
Activity (MCF7 [16]): 72%

C[C@H]1C[C@H]2O[C@@H]2CC/C=C/C(=O)Cc2c(Cl)c(O)cc(O)c2C(=O)O1 [POCHONIN A]
IC50 [3]: 90 nM

CC(C)(C)CNCCn1c(Sc2nc3cccc(Cl)c3s2)nc2c(N)ncnc21
IC50 [6]: 35 nM

CCNC(=O)c1noc(-c2cc(C(C)C)c(O)cc2O)c1-c1ccc(CN2CCOCC2)cc1 [LUMINESPIB]
inhibition in vivo at 50 mg/kg (HCT-116 [17]): 50%

C[C@@H]1C[C@H]2O[C@@H]2\C=C/C=C/C(=N\OC(=O)N2CCCCC2)Cc2c(Cl)c(O)cc(O)c2C(=O)O1
IC50 [18]: 25 nM

C[C@@H]1C/C=C/CC/C=C/C(=O)Cc2c(Cl)c(O)cc(O)c2C(=O)O1 [POCHONIN D]
IC50 [3]: 80 nM
